Results published in PMC11873646 (Acta Pharmaceutica Sinica. B, 2024).
Read-outs that look alike come from different tables or passages of the source.

Assays:
[1] = target: platelet P2Y12 receptor (Rattus norvegicus, UniProt Q9EPX4)
[2] = system: ADP-induced platelet aggregation
[3] = single oral dose 10 mg/kg, 4 h after administration, P < 0.05

platelet P2Y12 receptor, sequence (Q9EPX4 whole entry): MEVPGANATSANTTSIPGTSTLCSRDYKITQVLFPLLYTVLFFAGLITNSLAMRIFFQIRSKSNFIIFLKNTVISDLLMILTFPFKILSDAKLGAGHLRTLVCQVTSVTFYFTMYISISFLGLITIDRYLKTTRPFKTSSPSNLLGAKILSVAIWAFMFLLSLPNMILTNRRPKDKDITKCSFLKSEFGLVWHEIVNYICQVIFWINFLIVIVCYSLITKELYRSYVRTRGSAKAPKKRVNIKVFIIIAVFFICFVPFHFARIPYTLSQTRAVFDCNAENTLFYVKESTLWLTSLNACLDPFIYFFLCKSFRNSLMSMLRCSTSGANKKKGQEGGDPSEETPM

Compound: COC(=O)[C@H](c1ccccc1Cl)N1CCc2sccc2C1 [Clop, Clopidogrel]
- change in P2Y12 occupancy between D1H4 and D7H4 ([1]; 3 mg/kg oral for 7 consecutive days, male SD rats, P < 0.01): gradual and significant increase
- decrease in P2Y12 occupancy in T2DM rats vs control rats ([1]; single oral dose 10 mg/kg, 1 h post-administration, P < 0.05): 50.7%
- decrease in P2Y12 occupancy in T2DM rats vs control rats ([1]; single oral dose 10 mg/kg, 4 h post-administration, P < 0.001): 64.4%
- time of maximal P2Y12 occupancy ([1]; single oral dose 10 mg/kg, male SD rats, post-administration): 4 h
- mean IPA ([2]; 3 mg/kg repeated oral dose group, male SD rats, 5 umol/L ADP): 14.0 ± 12.5%
- mean IPA ([2]; 30 mg/kg repeated oral dose group, male SD rats, 5 umol/L ADP): 59.6 ± 10.1%
- time for platelet activity to recover after cessation of administration ([2]; 3, 10 and 30 mg/kg for 7 days, all three dose groups, male SD rats): five
- decrease in IPA vs Clop alone ([2]; co-administration 10 mg/kg Clop + 10 mg/kg omeprazole, after 7 days, P < 0.01): 57.3%
- increase in MPA vs Clop alone ([2]; co-administration 10 mg/kg Clop + 10 mg/kg omeprazole, after 7 days, P < 0.05): 21.1%
- decrease in IPA in T2DM rats vs control rats [2, 3]: 48.3%
- increase in MPA in T2DM rats vs control rats [2, 3]: 33.2%
- time of peak maximal inhibitory effect on platelet aggregation (MPA, IPA) ([2]; single oral dose 10 mg/kg, male SD rats, post-administration, 5 umol/L ADP): 4 h
